These are literature values, as cited in PMC9721426, “Novel piperine-carboximidamide hybrids: design, synthesis, and antiproliferative activity via a multi-targeted inhibitory pathway” (Journal of Enzyme Inhibition and Medicinal Chemistry, 2022).

The structures appear in SMILES notation.

Data set [1] deals with p38α. Further details: method as in earlier work. To be noted: cited from earlier work.
Data set [2] deals with BRAF^V600E. Further details: method as in earlier work. To be noted: cited from earlier work.
Data set [3] deals with c-Met. Further details: method as in PMID 35667253. As to conditions: cited from earlier work.
Data set [4] relates to CDK2. Further details: method as in PMID 35667253. As to conditions: cited from earlier work.
In data set [5] the target is T1, EGFR (Homo sapiens, UniProt P00533).
T1 construct: cytoplasmic domain (EGFR -CD, amino acids 645–1186); His6 (N); made in house; host or cells: Sf-9 insect cells (baculovirus, pBlueBacHis2B / pFASTBacHTc)
T1 sequence (P00533 669-1210): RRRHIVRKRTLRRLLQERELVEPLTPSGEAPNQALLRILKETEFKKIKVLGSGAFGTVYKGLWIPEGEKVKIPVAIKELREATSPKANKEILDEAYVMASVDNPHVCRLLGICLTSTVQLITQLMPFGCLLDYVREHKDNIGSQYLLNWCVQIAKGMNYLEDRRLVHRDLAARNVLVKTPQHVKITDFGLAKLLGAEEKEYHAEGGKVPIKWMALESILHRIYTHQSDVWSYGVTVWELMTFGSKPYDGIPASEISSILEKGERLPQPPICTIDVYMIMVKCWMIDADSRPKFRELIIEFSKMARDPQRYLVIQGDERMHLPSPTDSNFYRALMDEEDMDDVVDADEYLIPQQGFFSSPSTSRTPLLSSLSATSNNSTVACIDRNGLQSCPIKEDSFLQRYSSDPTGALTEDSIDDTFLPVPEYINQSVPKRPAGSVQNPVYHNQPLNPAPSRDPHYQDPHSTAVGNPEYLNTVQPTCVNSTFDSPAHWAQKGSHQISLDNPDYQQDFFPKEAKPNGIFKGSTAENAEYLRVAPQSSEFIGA
Further details: method as in PMID 35667253. To be noted: cited from earlier work.

For data set [6], the system named is four cancer cell lines. Further details: method as in PMID 35667253. To be noted: read-out: GI50 against the tested four cancer cell lines; cited from earlier work.

On to `CCCCCCn1c(-c2ccc(C(=O)O/N=C(\N)c3cccc4c3OCO4)cc2)nc(-c2ccccc2)c1-c1ccccc1` [Compound 4], for which the IC50 (in general, the point on the concentration scale where inhibition reaches its midpoint) was 190 nM in data set [1] and 330 nM in data set [2].
As for `COc1cc(OC)cc(/C(N)=N/OC(=O)c2ccc3cn[nH]c3c2)c1` [Compound 5], the IC50 was 4.1 nM in data set [3], 14 nM in data set [4] and 89 nM in data set [5]. Further, the GI50 (in general, the concentration giving 50% growth inhibition) in data set [6] was 770 nM.
